Legend:
[1] = biological target: T1, Recombinant human glycogen synthase kinase 3β (Homo sapiens, UniProt P49841); assay: GSK-3β inhibition (radiometric 33P-ATP, GS-2 peptide substrate); format: biochemical; details: remaining GSK-3 activity
T1 construct: purchased Upstate 14-306
Experimental: This assay is based on the protocol detailed by Upstate Cat. 14-306, making some slight modifications.
Recombinant human glycogen synthase kinase 3β is assayed in MOPS 11 mM pH7.4, EDTA 0.2 mM, EGTA 1.25 mM, MgCl2 26.25 mM and sodium orthovanadate 0.25 mM in the presence of 62.5 μM of Phospho-Glycogen Synthase Peptide-2 (GS-2) (TOCRIS, Cat. 1352), 0.5 μCi γ-^33P-ATP and unlabelled ATP (Sigma, A-9187) at a final concentration of 12.5 μM. After incubation for 30 minutes at 30° C., aliquots are spotted onto P81 phosphocellulose papers. Filters are washed four times for at least 10 minutes each with 1% phosphoric acid and counted with scintillation cocktail in a scintillation counter (PerkinElmer, Microbeta 1450). The activity of GSK-3 is tested at concentrations of 25 and 50 μM, in the presence of the compound synthesized according to example 1 and in the presence of another 6 compounds of formula (I). The results obtained are indicated in Table I (see below), in the form of percentage of GSK-3 activity.

[2] = test system: phosphorylated human Tau [pS396] in SHSY5Y cells; assay: Inhibition of tau phosphorylation in SHSY5Y cells (Tau [pS396] sandwich ELISA); format: cell-based; parameters: key: “NEG” means no tau phosphorylation inhibition was detected at the referred concentration of compound (I); “POS” means that at the referred concentration tau phosphorylation inhibition was detected; details: 18 h
Experimental: Human neuroblastoma SHSY5Y cells were seeded in the presence of Minimum Essential Medium/Nutrient Mixture F-12. One day later, cells are treated with samples for 18 h at 37° C. After treatment, cultures are washed with phosphate-buffered saline and lysed for 30 min at 4° C. in extraction buffer (10 mM Tris-HCl, pH 7.4, 100 mM NaCl, 1 mM EDTA, 2 mM Na3VO4, 1% Triton X-100, 10% glycerol, 0.1% SDS, 0.5% Sodium deoxycholate, 1 mM PMSF and a protease inhibitor cocktail (Roche, Cat 1 697 498)).
The quantitative determination of phosphorylated human Tau is made taking aliquots of the cell lysate and using a phosphorylation-specific antibody against Tau [pS396] in a sandwich ELISA (Biosource, Cat KHB7031). Tau phosphorylation is estimated by measuring the absorbance at 450 nm in a microtiter plate reader (Cultek, Anthos 2010).
The effect of the synthesized compound according to example 1 and that of another 6 compounds of formula (I) is determined at different final concentrations, namely 50, 100 and 200 μM. Not all the compounds of formula (I) were tested at all the concentrations. The results are indicated in Table 1 (see below) as “NEG” and “POS”, respectively meaning “negative” and “positive”; “NEG” means no tau phosphorylation inhibition was detected at the referred concentration of compound (I); “POS” means that at the referred concentration tau phosphorylation inhibition was detected.

SH-SY5Y cells = assay: Cell survival by LDH release in SH-SY5Y cells; format: cell-based
Experimental: In addition to tau phosphorylation assays, quantification of cell death due to potential toxicity of compounds 1 and 3 described above is made by measuring LDH release (Roche, Cat 1 644 793). For the quantitative determination of cell survival, aliquots of the cell lysate are incubated with an equal volume of reaction mixture at room temperature for 20-30 min. The measure of absorbance is made in a microtiter plate reader with 490-492 nm filter (Cultek, Anthos 2010).
For compounds 1 and 3, the cell survival was measured at 24 hours treatment (see Table 2), and for compound 2 was measured at 18 hours treatment (see Table 3), in SH-SY5Y cells. It is generally considered that a compound is considered toxic if less than 80% of the cells survive after treatment with a compound.

T1 sequence (P49841 whole entry): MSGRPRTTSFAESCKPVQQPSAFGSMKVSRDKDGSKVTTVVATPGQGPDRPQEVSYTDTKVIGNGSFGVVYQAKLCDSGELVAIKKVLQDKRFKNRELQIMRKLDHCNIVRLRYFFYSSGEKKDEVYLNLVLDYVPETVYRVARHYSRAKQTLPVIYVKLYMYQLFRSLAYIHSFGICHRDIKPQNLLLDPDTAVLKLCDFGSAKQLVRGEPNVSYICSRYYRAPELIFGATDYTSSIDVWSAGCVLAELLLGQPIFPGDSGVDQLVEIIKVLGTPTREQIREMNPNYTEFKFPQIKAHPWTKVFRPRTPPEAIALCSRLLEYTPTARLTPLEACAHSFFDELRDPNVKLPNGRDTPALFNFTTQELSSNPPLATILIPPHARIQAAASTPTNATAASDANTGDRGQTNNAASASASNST

Row | Compound | % GSK-3 Activity ([1]; 25 μM compound) [%] | % GSK-3 Activity ([1]; 50 μM compound) [%] | Tau phosphorylation inhibition in cells ([2]; 50 μM compound) | Tau phosphorylation inhibition in cells ([2]; 100 μM compound) | % of cell viability (SH-SY5Y cells; 50 μM, 24 hours treatment) [%] | % of cell viability (SH-SY5Y cells; 100 μM, 24 hours treatment) [%] | % of cell viability (SH-SY5Y cells; 50 μM, 18 hours treatment) [%] | % of cell viability (SH-SY5Y cells; 100 μM, 18 hours treatment) [%]
1 | O=C(Cc1cccnc1)Nc1ncc([N+](=O)[O-])s1 [Compound 1, N-(5-Nitro-thiazol-2-yl)-2-pyridin-3-yl-acetamide] | 5.21 | 2.78 | POS | POS | 94.1 ± 1.8 | 86.5 ± 4.7 |  | 
2 | O=C(CCc1cccnc1)Nc1ncc([N+](=O)[O-])s1 [Compound 2] | 8.3 | 5.36 | POS | POS |  |  | 95.7 ± 4.2 | 93.7 ± 7.1
3 | O=C(Cc1ccccn1)Nc1ncc([N+](=O)[O-])s1 [Compound 3] | 9.49 | 4.1 | NEG | POS | 87 ± 6.0 | 85.4 ± 2.7 |  | 
4 | O=C(Cc1cccnc1)Nc1ncc(Cl)s1 [Compound 4] | 5.6 | 13.8 | NEG | POS |  |  |  | 
5 | O=C(Nc1ncc([N+](=O)[O-])s1)c1ccccn1 [Compound 5] | 76.72 | 43.78 |  |  |  |  |  | 
6 | O=C(Cc1cccnc1)Nc1nccs1 [Compound 6] | 22.29 | 50.90 |  |  |  |  |  | 
7 | O=C(Cc1ccccc1)Nc1ncc([N+](=O)[O-])s1 [Compound 7] | 13.73 | 8.05 | POS | POS |  |  |  | 

Reference: US20090221647A1, “N-(2-THIAZOLYL)-AMIDE DERIVATIVES AS GSK-3 INHIBITORS” (NOSCIRA, S.A., priority 2006, published 2009)
